System: Vibrio fischeri
Assay: increase in luminescence of Vibrio fischeri culture with addition of aspartic acid to the cultivation medium
Type: cell-based
Conditions: 12.5 mg of aspartic acid added to cultivation medium; aspartic acid-free medium starts only at a later time
Protocol: In two cultivation experiments carried out in parallel, bacterial suspensions were prepared according to the method described below. In order to test the influence of aspartic acid, 12.5 mg of aspartic acid had been added to the cultivation medium of one of the two reaction mixtures. The effect of the addition of aspartic acid was detected by taking luminescence images using the Nightowl camera system from EG&G Berthold and is depicted in FIGS. 2a and 2b.
A tissue culture flask (e.g. Falcon Cat. No. 353110) which contains 125 ml of cultivation medium and a magnetic stirring bar was inoculated with bacteria from a Vibrio fischeri strain stock. The inoculated cultivation solution was then incubated with slow stirring on a magnetic stirrer at room temperature.

N[C@@H](CC(=O)O)C(=O)O [aspartic acid]
incubation time after which the culture showed a distinct luminescence: ≤ 18 h

Source: patent US20040033587A1, “Method and device for detecting Biologically Active Substances” (Bayer Aktiengesellschaft, priority 2002, published 2004)
